We go through six compounds from ChEMBL document CHEMBL4402533 (Eur J Med Chem, 2019).

The nature of data set [1]: Critical aggregation concentration of compound by dynamic light scattering. The class given is physicochemical.
Data set [2] can be described thus: Chemical stability of the compound in pH 7.4 phosphate buffer assessed as drug decomposition in serum-free medium measured within 30 mins. The class given is physicochemical.
A short description of data set [3]: Chemical stability of the compound in presence of 10% FBS or human blood. The class given is physicochemical.
Data set [4] in a line: Partition coefficient, log P of the compound. The class given is physicochemical. Particulars: octanol/water.
A further data set addresses T1, Tyrosinase (Agaricus bisporus, UniProt O42713).
T1 sequence (O42713 whole entry): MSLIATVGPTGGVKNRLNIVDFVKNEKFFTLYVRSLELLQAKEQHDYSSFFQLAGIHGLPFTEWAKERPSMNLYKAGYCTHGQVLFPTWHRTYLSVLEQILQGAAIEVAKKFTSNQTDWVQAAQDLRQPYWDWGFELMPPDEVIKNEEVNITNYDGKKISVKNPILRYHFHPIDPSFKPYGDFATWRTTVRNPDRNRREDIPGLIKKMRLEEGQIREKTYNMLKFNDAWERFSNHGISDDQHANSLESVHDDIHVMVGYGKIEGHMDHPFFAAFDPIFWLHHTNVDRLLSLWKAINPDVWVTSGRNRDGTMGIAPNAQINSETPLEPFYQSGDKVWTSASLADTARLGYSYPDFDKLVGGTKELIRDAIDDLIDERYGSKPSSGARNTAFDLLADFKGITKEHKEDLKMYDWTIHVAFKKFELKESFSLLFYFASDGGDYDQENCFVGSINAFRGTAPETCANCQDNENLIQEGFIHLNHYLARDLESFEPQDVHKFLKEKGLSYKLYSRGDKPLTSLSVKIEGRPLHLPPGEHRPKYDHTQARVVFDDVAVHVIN
Briefly: Inhibition of mushroom tyrosinase preincubated for 10 mins followed by L-DOPA addition and measured for 1 mins by spectrophotometric assay.

The test system of a further data set is Mus musculus. Briefly: Antiinflammatory activity in C57BL/6 mouse assessed as reduction in LPS-induced inflammatory mortality by measuring mouse survival rate at 10 mg/kg, iv preincubated for 15 mins followed by LPS stimulation and measured at 24 hrs interval for 7 days relative to control. The class given is functional.
For data set [5], the species on record is Homo sapiens. Put plainly: Selectivity ratio of Ki for human carbonic anhydrase 9 to Ki for human carbonic anhydrase 2.
The species named for data set [6] is Homo sapiens. Put plainly: Selectivity ratio of Ki for human carbonic anhydrase 12 to Ki for human carbonic anhydrase 9.
The subject of a further data set is HeLa. Put plainly: Antiproliferative activity against human HeLa cells. The class given is functional, cell-based.

Each structure is given as a SMILES string.

A word on the logP: it is the decadic logarithm of the partition coefficient of the neutral form, usually between octanol and water. A higher logP goes with a more lipophilic compound. Turning to `COc1cc(/C=C/C(=O)CC(=O)/C=C/c2ccc(O)c(OC)c2)ccc1O` [CURCUMIN], the CAC in data set [1] came to 17 µM. In data set [2], the Drug degradation is under 90%. In [3], the Stability was under 50%. Also, the logP in [4] was in the range of 2.3 to 2.6.

For orientation: IC50 means the concentration that inhibits the measured activity by half. A higher IC50 goes with a need for much substance. `O=C1/C(=C/c2ccc(O)cc2)CC/C1=C\c1ccc(O)cc1O` registered a half-inhibitory concentration (IC50) against Tyrosinase of 1740 nM.

With `O=C(/C=C/c1ccccc1O)/C=C/c1ccccc1Br`, the Activity in the data set with Mus musculus is 60%.

Consider `COc1ccc(OC)c(/C=C/C(=O)/C=C/c2ccc(S(N)(=O)=O)cc2)c1`, for which the Ratio Ki in the data set filed under Homo sapiens [5] and in the data set listed under Homo sapiens [6] was 9 each time.

Turning to `COc1ccc(/C=C/C(=O)/C=C/c2ccc(S(N)(=O)=O)cc2)cc1OC`, the Ratio Ki in the data set filed under Homo sapiens [5] amounted to 3; in the data set filed under Homo sapiens [6], 70.

For the compound `COc1ccc(/C=C/C(=O)/C=C/c2ccc(OCCN3CCCCC3)c(OC)c2)cc1OC`, 700 nM corresponded to half-maximal inhibition with HeLa (IC50).
